Measurements taken from US10961215B2, “N-aryl and N-heteroaryl piperidine derivatives as liver X receptor beta agonists, compositions, and their use” (Merck Sharp & Dohme Corp., priority 2016, dated 2021).

Columns and labels:
[1] = target: T1, GST tagged LXRbeta LBD (ligand binding domain) (Homo sapiens, UniProt P55055); assay: LanthaScreen TR-FRET Liver X Receptor Coactivator Assay, LXR beta-LBD (co-activator recruitment; IP and % Emax relative to T0901317); format: biochemical; settings: for EC50: Inflection Point of co-activator recruitment, LXR beta-LBD, TR-FRET; for Emax / LXR beta actiivty at max dose (%): efficacy at max dose in relation to reference T0901317, LXR beta-LBD; for Emax: read-out: LXR beta actiivty at max dose (%)
T1 construct: purchased Invitrogen pv4658.pps
T1 sequence (P55055 222-460 limits assumed): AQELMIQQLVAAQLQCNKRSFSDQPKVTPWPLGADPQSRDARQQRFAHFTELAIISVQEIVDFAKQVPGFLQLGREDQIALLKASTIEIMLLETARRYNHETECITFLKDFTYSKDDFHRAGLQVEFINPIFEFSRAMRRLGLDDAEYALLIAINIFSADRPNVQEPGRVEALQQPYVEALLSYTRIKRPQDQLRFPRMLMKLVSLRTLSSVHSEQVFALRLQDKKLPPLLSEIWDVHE
Outline: (§1)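 Compounds were first combined with the GST-LBD protein. A premixed fluorescein coactivator peptide and terbium-labelled anti-GST antibody was then added. Plates were incubated at room temperature and TR-FRET measured.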

[2] = target: T2, GST tagged LXRalpha LBD (ligand binding domain) (Homo sapiens, UniProt Q13133); assay: LanthaScreen TR-FRET Liver X Receptor Coactivator Assay, LXR alpha-LBD (co-activator recruitment; IP and % Emax relative to T0901317); format: biochemical; settings: for LXR alpha IP (nM) / EC50: Inflection Point of co-activator recruitment, LXR alpha-LBD, TR-FRET; for Emax / LXR alpha actiivty at max dose (%): efficacy at max dose in relation to reference T0901317, LXR alpha-LBD; for Emax: read-out: LXR alpha actiivty at max dose (%)
T2 construct: purchased Invitrogen pv4655
T2 sequence (Q13133 209-447 limits assumed): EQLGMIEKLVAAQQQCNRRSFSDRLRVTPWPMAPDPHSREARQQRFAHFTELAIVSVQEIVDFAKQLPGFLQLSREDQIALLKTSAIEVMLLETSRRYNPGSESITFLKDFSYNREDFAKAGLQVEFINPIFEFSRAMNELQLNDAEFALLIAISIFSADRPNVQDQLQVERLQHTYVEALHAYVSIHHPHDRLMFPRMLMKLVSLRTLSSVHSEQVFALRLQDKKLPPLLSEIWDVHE
Outline: as §1

Compound | EC50 [1] | Emax [1] | LXR alpha IP (nM) [2] | Emax [2] | LXR beta actiivty at max dose (%) [1] | EC50 [2] | LXR alpha actiivty at max dose (%) [2]
CN(C)C(=O)c1ccc(N2CCC(CCCN(C)C(=O)C(O)(c3ccccc3)C(F)(F)F)CC2)cc1Cl (single isomer, unassigned) [Example 4-4, 2-chloro-N,N-dimethyl-4-(4-(3-(3,3,3-trifluoro-2-hydroxy-N-methyl-2-phenylpropanamido)propyl)piperidin-1-yl)benzamide] | 45 nM |  |  | 14% | 59% | 1580 nM | 
CN(C)C(=O)c1ccc(N2CCC(CCCN(C)C(=O)[C@](O)(c3cccc(OC(F)(F)F)c3)C(F)(F)F)CC2)nc1Cl [Example 1-40, (R)-2-chloro-N,N-dimethyl-6-(4-(3-(3,3,3-trifluoro-2-hydroxy-N-methyl-2-(3-(trifluoromethoxy)phenyl)propanamido)propyl)piperidin-1-yl)nicotinamide] | 52 nM | 63% | No IP | 0% |  |  | 
CCOc1cccc([C@@](O)(C(=O)N(C)CCCC2CCN(c3ccc(C(=O)N(C)C)c(Cl)n3)CC2)C(F)(F)F)c1 [Example 1-36, (R)-2-chloro-6-(4-(3-(2-(3-ethoxyphenyl)-3,3,3-trifluoro-2-hydroxy-N-methylpropanamido)propyl)piperidin-1-yl)-N,N-dimethylnicotinamide] | 78 nM | 63% | No IP | 0% |  |  | 
CN(C)C(=O)c1ccc(N2CCC(CCCN(C)C(=O)[C@](O)(c3ccccc3)C3CCC3)CC2)nc1Cl [Example 1-22, (R)-2-chloro-6-(4-(3-(2-cyclobutyl-2-hydroxy-N-methyl-2-phenylaceetamido)propyl)piperidin-1-yl)-N,N-dimethylnicotinamide] | 64 nM | 94% | No IP | 9% |  |  | 
CN(C)C(=O)c1ccc(N2CCC(CCCN(C)C(=O)[C@]3(c4ccccc4)CCCO3)CC2)nc1Cl [Example 1-10, (R)-2-chloro-N,N-dimethyl-6-(4-(3-(N-methyl-2-phenyl-tetrahydrofuran-2-carboxamido)propyl)piperidin-1-yl)nicotinamide] | 72 nM | 71% | No IP | 9% |  |  | 
CN(C)C(=O)c1ccc(N2CCC(CCCN(C)C(=O)[C@](O)(c3cccc(O)c3)C(F)(F)F)CC2)nc1Cl [Example 1-58, (R)-2-chloro-N,N-dimethyl-6-(4-(3-(3,3,3-trifluoro-2-hdyroxy-2-(3-hydroxyphenyl)-N-methylpropanamido)propyl)piperidin-1-yl)nicotinamide] | 37 nM | 86% |  | 37% |  | 2780 nM | 
COc1cccc(C2(C(=O)N(C)CCCC3CCN(c4ccc(C(=O)N(C)C)c(Cl)n4)CC3)CCOCC2)c1 [Example 1-44, 2-chloro-6-(4-(3-(4-(3-methoxyphenyl)-N-methyltetrahydro-2H-pyran-4-carboxamido)propyl)piperidin-1-yl)-N,N-dimethylnicotinamide] | 822 nM | 39% | No IP | 0% |  |  | 
CN(C)C(=O)c1ccc(N2CCC(CCCCN(C)C(=O)C(O)(c3ccccc3)C(F)(F)F)CC2)cc1Cl (stereo not shown) [Example 4-11, 2-chloro-N,N-dimethyl-4-(4-(4-(3,3,3-trifluoro-2-hydroxy-N-methyl-2-phenylpropanamido)butyl)piperidin-1-yl)benzamide] | 120 nM | 40% | No IP | 0% |  |  | 
COc1cccc([C@@](O)(C(=O)N(C)CCCC2CCN(c3ccc(C(=O)N(C)C4CC4)c(Cl)n3)CC2)C(F)(F)F)c1 [Example 2-3, (R)-2-chloro-N-cyclopropyl-N-methyl-6-(4-(3-(3,3,3-trifluoro-2-hydroxy-2-(3-methoxyphenyl)-N-methylpropanamido)propyl)piperidin-1-yl)nicotinamide] | 107 nM | 42% | No IP | 0% |  |  | 
CN(C)C(=O)c1ccc(N2CCC(CCCN(C)C(=O)[C@@](N)(c3ccccc3)C(F)(F)F)CC2)nc1Cl [Example 1-30, (S)-6-(4-(3-(2-amino-3,3,3-trifluoro-N-methyl-2-phenylpropanamido)propyl)piperidin-1-yl)-2-chloro-N,N-dimethylnicotinamide] | 237 nM | 47% | No IP | 1% |  |  | 
CN(C)C(=O)c1ccc(N2CCC(CCCN(C)C(=O)[C@@](O)(c3cccc(OC(F)(F)F)c3)C(F)(F)F)CC2)nc1Cl [Example 1-39, (S)-2-chloro-N,N-dimethyl-6-(4-(3-(3,3,3-trifluoro-2-hydroxy-N-methyl-2-(3-(trifluoromethoxy)phenyl)propanamido)propyl)piperidin-1-yl)nicotinamide] | 567 nM | 53% |  | 34% |  | 11100 nM | 

The remaining lines, values ahead:

EC50 [1] | Emax [1] | LXR alpha IP (nM) [2] | Emax [2] | LXR beta actiivty at max dose (%) [1] | EC50 [2] | LXR alpha actiivty at max dose (%) [2] | Compound
611 nM | 40% | No IP | 5% |  |  |  | CC(C)N(C)C(=O)c1ccc(N2CCC3(CC2)C[C@H]3CCN(C)C(=O)[C@](O)(c2ccccc2)C(F)(F)F)cc1Cl [Example 7-29, 2-chloro-N-isopropyl-N-methyl-4-((S)-1-(2-((R)-3,3,3-trifluoro-2-hydroxy-N-methyl-2-phenylpropanamido)ethyl)-6-azaspiro[2.5]octan-6-yl)benzamide]
561 nM | 72% | No IP | 16% |  |  |  | CN(C)C(=O)c1ccc(N2CCC(CCCNC(=O)C(C)(C)c3ccccc3)CC2)cc1Cl [Example 5-4, 2-chloro-N,N-dimethyl-4-(4-(3-(2-methyl-2-phenylpropanamido)propyl)piperidin-1-yl)benzamide]
505 nM | 79% | No IP |  |  |  | 0% | CN(C)C(=O)c1ccc(N2CCC([C@@H]3C[C@H]3CNC(=O)[C@@](O)(c3ccccc3)C(F)(F)F)CC2)cc1Cl [Example 15-17, 2-chloro-N,N-dimethyl-4-(4-((1S,2R)-2-(((S)-3,3,3-trifluoro-2-hydroxy-2-phenylpropanamido)methyl)cyclopropyl)piperidin-1-yl)benzamide]
542 nM | 84% | No IP | 17% |  |  |  | CN(C)C(=O)c1ccc(N2CCC([C@@H]3C[C@H]3CNC(=O)[C@@](O)(c3ccccc3)C(F)(F)F)CC2)nc1Cl [Example 15-13, 2-chloro-N,N-dimethyl-6-(4-((1S,2R)-2-(((S)-3,3,3-trifluoro-2-hydroxy-2-phenylpropanamido)methyl)cyclopropyl)piperidin-1-yl)nicotinamide]
275 nM |  | No IP |  | 73% |  | 16% | COc1cccc([C@@](O)(C(=O)NCCCC2CCN(c3ccc(C(=O)N(C)C)c(Cl)n3)CC2)C(F)(F)F)c1 [Example 5-23, (R)-2-chloro-N,N-dimethyl-6-(4-(3-(3,3,3-trifluoro-2-hydroxy-2-(3-methoxyphenyl)propanamido)propyl)piperidin-1-yl) nicotinamide]
525 nM | 57% | No IP | 0% |  |  |  | CN(C)C(=O)c1ccc(N2CCC3(CC2)CC3CCCNC(=O)C(C)(C)c2ccccc2)cc1Cl (stereo not shown) [Example 7-36, 2-chloro-N,N-dimethyl-4-(1-(3-(2-methyl-2-phenylpropanamido)propyl)-6-azaspiro[2.5]octan-6-yl)benzamide]
1010 nM | 40% |  | 40% |  | 13200 nM |  | CN(C)C(=O)c1ccc(N2CCC(CCCNC(=O)[C@](O)(c3cccc(OC(F)(F)F)c3)C(F)(F)F)CC2)nc1Cl [Example 5-12, (R)-2-chloro-N,N-dimethyl-6-(4-(3-(3,3,3-trifluoro-2-hydroxy-2-(3-(trifluoromethoxy)phenyl)propanamido)propyl)piperidin-1-yl)nicotinamide]
136 nM | 44% | No IP | 0% |  |  |  | CN(C)C(=O)c1ccc(N2CCC3(CC2)CC3CCCN(C)C(=O)[C@](O)(c2ccccc2)C(F)(F)F)cc1Cl (stereo partly drawn) [Example 7-33, 2-chloro-N,N-dimethyl-4-(1-(3-((R)-3,3,3-trifluoro-2-hydroxy-N-methyl-2-phenylpropanamido)propyl)-6-azaspiro[2.5]octan-6-yl)benzamide]
